Data on one compound can be found in ChEMBL document CHEMBL3779859, “Synergistic activity of a short lipidated antimicrobial peptide (lipoAMP) and colistin or tobramycin against Pseudomonas aeruginosa from cystic fibrosis patients” (Medchemcomm, 2016).

Values after ≈ are worked out from the molar mass of the structure shown. Active and inactive are the calls of the source. Peptide text beside a SMILES is read from it. * marks the point of attachment. Decanoyl = CCCCCCCCCC(=O)*

For data set [1], the system named is Pseudomonas aeruginosa. Description: Antibacterial activity against Pseudomonas aeruginosa PAO1 clinical isolate assessed as inhibition of biofilm formation at 4 ug/ml after 18 to 22 hrs by crystal violet staining-based polystyrene microtiter plate reader method in presence of 0.5 ug/ml colistin. The class given is functional, organism-based.
Data set [2] relates to Pseudomonas aeruginosa. Nature of the data set: Antibacterial activity against Pseudomonas aeruginosa LES400 clinical isolate after 16 to 20 hrs by microdilution assay. The class given is functional.
Data set [3] concerns Pseudomonas aeruginosa. Nature of the data set: Antibacterial activity against Pseudomonas aeruginosa Clone C clinical isolate assessed as inhibition of biofilm formation at 8 ug/ml after 24 hrs by propidium iodide staining-based confocal laser microscopy. The class given is functional, organism-based.
Data set [4] concerns Pseudomonas aeruginosa. Description: Antibacterial activity against Pseudomonas aeruginosa LESB58 clinical isolate assessed as delay in growth at 4 to 32 ug/ml measured every 15 mins by microtiter plate reader method. The class given is functional, organism-based.
The subject of data set [5] is Pseudomonas aeruginosa. Description: Antibacterial activity against Pseudomonas aeruginosa KD491 clinical isolate assessed as delay in growth at 4 to 8 ug/ml measured every 15 mins by microtiter plate reader method. In kind it is functional, organism-based.
Data set [6] relates to Pseudomonas aeruginosa. Nature of the data set: Antibacterial activity against Pseudomonas aeruginosa LESB58 clinical isolate assessed as growth inhibition at 4 ug/ml measured every 15 mins by microtiter plate reader method in presence of 2 ug/ml colistin. The class given is functional, organism-based.
Data set [7] has as its system Pseudomonas aeruginosa. Description: Antibacterial activity against Pseudomonas aeruginosa LESB58 clinical isolate after 18 to 22 hrs by checkerboard method in presence of colistin. In kind it is functional.
Data set [8] has as its system Pseudomonas aeruginosa. Description: Antibacterial activity against Pseudomonas aeruginosa Clone C clinical isolate assessed as delay in growth rate in exponential phase of bacterial growth curve at 8 to 16 ug/ml measured every 15 mins by microtiter plate reader method. The class given is functional, organism-based.
Data set [9] has as its system Pseudomonas aeruginosa. Nature of the data set: Antibacterial activity against Pseudomonas aeruginosa LESB58 clinical isolate assessed as growth inhibition at 32 ug/ml measured every 15 mins by microtiter plate reader method in presence of 1 ug/ml tobramycin. The class given is functional, organism-based.
For data set [10], the system named is Pseudomonas aeruginosa. Description: Antibacterial activity against Pseudomonas aeruginosa KD557 clinical isolate after 16 to 20 hrs by microdilution assay. In kind it is functional. Background: Dilution methods test growth across graded concentrations, often in twofold steps.
Data set [11] relates to Pseudomonas aeruginosa. Nature of the data set: Antibacterial activity against Pseudomonas aeruginosa Clone C clinical isolate assessed as inhibition of biofilm formation at 32 ug/ml after 18 to 22 hrs by crystal violet staining-based polystyrene microtiter plate reader method in presence of 2 ug/ml tobramycin. The class given is functional, organism-based.
Data set [12] has as its system Pseudomonas aeruginosa. Description: Antibacterial activity against Pseudomonas aeruginosa VW313 clinical isolate after 16 to 20 hrs by microdilution assay. The class given is functional.
Data set [13] has as its system Pseudomonas aeruginosa. Description: Antibacterial activity against Pseudomonas aeruginosa PAO1 clinical isolate assessed as inhibition of biofilm formation at 32 ug/ml after 18 to 22 hrs by crystal violet staining-based polystyrene microtiter plate reader method in absence of colistin. The class given is functional, organism-based.
Data set [14] relates to Pseudomonas aeruginosa. Nature of the data set: Antibacterial activity against Pseudomonas aeruginosa Clone C clinical isolate assessed as inhibition of biofilm formation at 128 ug/ml after 18 to 22 hrs by crystal violet staining-based polystyrene microtiter plate reader method. The class given is functional.
The subject of data set [15] is Pseudomonas aeruginosa. Nature of the data set: Antibacterial activity against Pseudomonas aeruginosa KD491 clinical isolate assessed as inhibition of biofilm formation at 8 ug/ml after 24 hrs by propidium iodide staining-based confocal laser microscopy. The class given is functional, organism-based.
Data set [16] relates to Pseudomonas aeruginosa. Nature of the data set: Antibacterial activity against Pseudomonas aeruginosa PAO1 clinical isolate after 18 to 22 hrs by checkerboard method in presence of tobramycin. The class given is functional.
Data set [17] has as its system Pseudomonas aeruginosa. Description: Antibacterial activity against Pseudomonas aeruginosa VW1633 clinical isolate after 16 to 20 hrs by microdilution assay. In kind it is functional.
Data set [18] concerns Pseudomonas aeruginosa. Nature of the data set: Antibacterial activity against Pseudomonas aeruginosa kl 1.1 clinical isolate after 16 to 20 hrs by microdilution assay. The class given is functional.
The test system of data set [19] is Pseudomonas aeruginosa. Description: Antibacterial activity against Pseudomonas aeruginosa PAO1 clinical isolate assessed as delay in growth rate in exponential phase of bacterial growth curve at 4 to 32 ug/ml measured every 15 mins by microtiter plate reader method. In kind it is functional, organism-based.
Data set [20] concerns Pseudomonas aeruginosa. Description: Antibacterial activity against Pseudomonas aeruginosa KD491 clinical isolate assessed as growth inhibition at 4 ug/ml measured every 15 mins by microtiter plate reader method in presence of […] ug/ml colistin. In kind it is functional, organism-based.
Data set [21] concerns Pseudomonas aeruginosa. Description: Toxicity in Pseudomonas aeruginosa KD491 clinical isolate assessed as inhibition of planktonic cell growth at 2 to 4 ug/ml after 18 to 22 hrs by microtiter plate reader method. The conditions noted are these: in vivo. The class given is organism-based.

As to `CCCCCCCCCC(=O)NCCCC[C@H](NC(=O)[C@H](Cc1c[nH]c2ccccc12)NC(=O)[C@H](CCCNC(=N)N)NC(=O)[C@H](Cc1c[nH]c2ccccc12)NC(=O)[C@H](CCCNC(=N)N)NC(=O)[C@H](Cc1c[nH]c2ccccc12)NC(=O)[C@@H](N)CCCNC(=N)N)C(=O)O` (H-RWRWRWK(Decanoyl)-OH), the inhibition entry in the data set on Pseudomonas aeruginosa [1], in the data set with Pseudomonas aeruginosa [3], in the data set on Pseudomonas aeruginosa [11], with Pseudomonas aeruginosa [13] and with Pseudomonas aeruginosa [15] was “inactive” each time. The MIC in the data set with Pseudomonas aeruginosa [2] is 64 µg/mL (≈ 48.2 µM); in the data set with Pseudomonas aeruginosa [10], 256 µg/mL (≈ 193 µM); in the data set with Pseudomonas aeruginosa [12], 32 µg/mL (≈ 24.1 µM); in the data set on Pseudomonas aeruginosa [17] it was 16 µg/mL (≈ 12.1 µM); in the data set on Pseudomonas aeruginosa [18], 128 µg/mL (≈ 96.4 µM). Further, the outcome with Pseudomonas aeruginosa [4], in the data set on Pseudomonas aeruginosa [5], in the data set on Pseudomonas aeruginosa [8] and in the data set with Pseudomonas aeruginosa [19] was Active. The “growth inhibition (GI)” value with Pseudomonas aeruginosa [6], in the data set on Pseudomonas aeruginosa [9] and in the data set on Pseudomonas aeruginosa [20] was “Active” each time. In addition, the “fractional inhibitory concentration index (FICI)” value with Pseudomonas aeruginosa [7] came out at 0.375; in the data set on Pseudomonas aeruginosa [16], 0.75. The inhibition at 128 µg/mL in the data set on Pseudomonas aeruginosa [14] worked out at 82%. Moreover, the Activity result with Pseudomonas aeruginosa [21] is on record as “Non-toxic”.

Broadly, the inhibition is the share of the control response that was lost under treatment. By MIC is commonly meant the smallest concentration in the dilution series that meets the test's criterion for growth inhibition. A high value points to weaker potency.
